Laboratory results taken from paper PMC8222254, “Self-assembly of an anion receptor with metal-dependent kinase inhibition and potent in vitro anti-cancer properties” (Nature Communications, 2021).
Several values for one entry are separate records, joined by “and”; a condition that tells them apart may be missing. Equal entries are not always repeated.

What was measured:
Experiment in all cases: Kinase inhibition screen, cell-free 33P ATP assay at 10 μM
Type in all cases: biochemical
[1] = molecular target: T1, 140 purified human kinases (Homo sapiens, UniProt O43318)
T1 sequence (O43318 1-606): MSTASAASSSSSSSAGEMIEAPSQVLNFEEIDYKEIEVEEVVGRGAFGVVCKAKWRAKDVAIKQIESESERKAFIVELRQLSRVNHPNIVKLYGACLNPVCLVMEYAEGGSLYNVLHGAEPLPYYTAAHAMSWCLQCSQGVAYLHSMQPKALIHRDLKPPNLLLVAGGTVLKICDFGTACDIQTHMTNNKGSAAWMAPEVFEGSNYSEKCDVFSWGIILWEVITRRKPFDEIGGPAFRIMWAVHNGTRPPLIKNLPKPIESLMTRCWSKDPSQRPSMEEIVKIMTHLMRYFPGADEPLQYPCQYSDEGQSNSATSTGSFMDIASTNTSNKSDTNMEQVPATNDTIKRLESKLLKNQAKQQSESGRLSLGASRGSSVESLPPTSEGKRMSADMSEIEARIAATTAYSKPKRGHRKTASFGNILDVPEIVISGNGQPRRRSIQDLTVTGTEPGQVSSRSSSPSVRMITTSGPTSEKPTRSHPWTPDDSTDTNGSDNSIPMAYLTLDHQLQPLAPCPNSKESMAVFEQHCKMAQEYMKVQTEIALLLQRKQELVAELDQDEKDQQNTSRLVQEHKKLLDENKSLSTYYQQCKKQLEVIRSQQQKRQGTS
How it was run: (§1)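 Radiometric ^33P ATP cell-free format with purified enzymes; both complexes run at 10 μM in duplicate, results plotted on a kinome map via HGNC symbols.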

[2] = molecular target: 140 purified human kinases (Homo sapiens, UniProt P05129); settings: PKCγ
How it was run: as §1

[3] = molecular target: 140 purified human kinases (Homo sapiens, UniProt P41240); settings: CSK
Chain of 140 purified human kinases (Homo sapiens, UniProt P41240) (P41240 whole entry): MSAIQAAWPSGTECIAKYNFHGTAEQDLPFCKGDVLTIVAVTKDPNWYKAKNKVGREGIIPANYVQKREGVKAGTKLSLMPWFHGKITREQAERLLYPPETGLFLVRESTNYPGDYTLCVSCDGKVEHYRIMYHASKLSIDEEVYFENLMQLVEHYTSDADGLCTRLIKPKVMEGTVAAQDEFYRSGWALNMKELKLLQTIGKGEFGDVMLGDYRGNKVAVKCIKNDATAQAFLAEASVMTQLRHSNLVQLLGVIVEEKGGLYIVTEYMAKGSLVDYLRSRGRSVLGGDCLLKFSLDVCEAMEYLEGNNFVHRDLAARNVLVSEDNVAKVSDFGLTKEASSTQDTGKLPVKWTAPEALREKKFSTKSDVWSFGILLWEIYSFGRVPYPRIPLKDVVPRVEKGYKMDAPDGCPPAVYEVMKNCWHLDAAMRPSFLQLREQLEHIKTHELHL
How it was run: as §1

[4] = molecular target: T2, 140 purified human kinases (Homo sapiens, UniProt Q05513); settings: PKCz; for % Activity inhibition Mean / % Activity inhibition Run 1 / % Activity inhibition Run 2 / % Activity remaining Run 1 / % Activity remaining Run 2: 10 µM
T2 sequence (Q05513 1-592): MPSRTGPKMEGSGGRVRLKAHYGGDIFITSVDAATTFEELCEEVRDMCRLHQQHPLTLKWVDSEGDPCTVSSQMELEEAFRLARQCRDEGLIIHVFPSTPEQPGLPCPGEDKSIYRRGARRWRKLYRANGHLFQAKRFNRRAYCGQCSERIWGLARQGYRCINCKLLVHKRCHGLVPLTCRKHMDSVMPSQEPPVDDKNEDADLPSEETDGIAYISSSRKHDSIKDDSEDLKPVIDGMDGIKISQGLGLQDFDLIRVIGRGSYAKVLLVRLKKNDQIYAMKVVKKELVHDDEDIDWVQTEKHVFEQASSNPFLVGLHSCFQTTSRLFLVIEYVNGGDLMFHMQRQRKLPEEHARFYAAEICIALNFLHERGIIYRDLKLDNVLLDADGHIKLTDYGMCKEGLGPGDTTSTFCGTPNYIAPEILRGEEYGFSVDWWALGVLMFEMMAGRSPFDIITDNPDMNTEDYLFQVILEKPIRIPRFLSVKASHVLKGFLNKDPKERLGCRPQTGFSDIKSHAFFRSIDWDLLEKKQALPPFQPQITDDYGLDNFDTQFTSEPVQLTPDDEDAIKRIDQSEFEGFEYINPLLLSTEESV
How it was run: as §1

[5] = molecular target: T3, 140 purified human kinases (Homo sapiens, UniProt Q8IWQ3)
T3 sequence (Q8IWQ3 1-736): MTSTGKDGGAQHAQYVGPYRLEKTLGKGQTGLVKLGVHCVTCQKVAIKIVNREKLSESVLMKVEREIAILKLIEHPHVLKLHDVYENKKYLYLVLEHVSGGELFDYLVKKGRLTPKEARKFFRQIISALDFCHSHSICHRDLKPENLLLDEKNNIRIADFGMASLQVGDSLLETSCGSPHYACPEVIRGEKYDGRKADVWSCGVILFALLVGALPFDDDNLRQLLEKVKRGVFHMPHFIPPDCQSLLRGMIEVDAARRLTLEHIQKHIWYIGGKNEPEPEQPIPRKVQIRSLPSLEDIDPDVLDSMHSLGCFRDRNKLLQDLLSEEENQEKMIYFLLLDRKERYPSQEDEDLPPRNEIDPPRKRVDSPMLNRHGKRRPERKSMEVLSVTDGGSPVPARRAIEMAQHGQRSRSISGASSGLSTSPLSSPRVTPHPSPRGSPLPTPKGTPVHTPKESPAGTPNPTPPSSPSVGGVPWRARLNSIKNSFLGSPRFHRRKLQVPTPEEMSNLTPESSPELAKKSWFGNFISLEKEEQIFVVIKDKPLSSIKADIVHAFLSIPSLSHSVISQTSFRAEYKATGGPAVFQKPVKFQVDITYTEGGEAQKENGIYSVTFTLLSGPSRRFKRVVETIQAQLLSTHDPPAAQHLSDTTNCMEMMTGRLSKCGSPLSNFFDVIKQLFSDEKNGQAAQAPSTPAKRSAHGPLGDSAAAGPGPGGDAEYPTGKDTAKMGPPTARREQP
How it was run: as §1

[6] = molecular target: 140 purified human kinases (Homo sapiens, UniProt Q9HC98)
Chain of 140 purified human kinases (Homo sapiens, UniProt Q9HC98) (Q9HC98 whole entry): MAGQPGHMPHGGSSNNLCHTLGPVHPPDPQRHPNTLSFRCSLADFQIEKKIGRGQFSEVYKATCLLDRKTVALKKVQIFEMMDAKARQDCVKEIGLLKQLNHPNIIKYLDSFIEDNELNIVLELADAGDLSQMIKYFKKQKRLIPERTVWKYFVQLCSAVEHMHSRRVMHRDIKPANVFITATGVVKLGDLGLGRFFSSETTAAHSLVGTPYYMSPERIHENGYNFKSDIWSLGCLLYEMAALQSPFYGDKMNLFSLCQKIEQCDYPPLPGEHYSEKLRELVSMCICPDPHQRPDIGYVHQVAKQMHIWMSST
How it was run: as §1

For `[Cu+2].[Cu+2].[Cu+2].c1ccc(-c2csc(NCCN(CCNc3nc(-c4ccccn4)cs3)CCNc3nc(-c4ccccn4)cs3)n2)nc1.c1ccc(-c2csc(NCCN(CCNc3nc(-c4ccccn4)cs3)CCNc3nc(-c4ccccn4)cs3)n2)nc1` [[L2Cu3]6+], the “% Inhibition Run 1” value ([1]; TAK1) was 45.7%, the “% Inhibition Run 2” value ([1]; TAK1) was 51.7% and the “% Inhibition, Mean” value ([1]; TAK1) was 49%. The mean % activity ([1]; TAK1) was 51%, the “% activity” value ([1]; TAK1, Run 1) was 54.3% and the “% activity” value ([1]; TAK1, Run 2) was 48.3%. The “% Inhibition Run 1” value [2] was 58.1%, the “% Inhibition Run 2” value [2] was 72% and the “% Inhibition, Mean” value [2] was 65%. For the same compound, the mean % activity [2] was 35%, the “% activity” value ([2]; Run 1) was 41.9% and the “% activity” value ([2]; Run 2) was 28%. For the same compound, the “% Inhibition Run 1” value [3] was 11.5%, the “% Inhibition Run 2” value [3] was 10.8% and the “% Inhibition, Mean” value [3] was 11%. The mean % activity [3] was 89%, the “% activity” value ([3]; Run 1) was 88.5% and the “% activity” value ([3]; Run 2) was 89.2%. The “% Inhibition Run 1” value [4] was 92.5%, the “% Inhibition Run 2” value [4] was 95.1% and the “% Inhibition, Mean” value [4] was 94%. For the same compound, the mean % activity [4] was 6%, the “% activity” value ([4]; Run 1) was 7.5% and the “% activity” value ([4]; Run 2) was 4.9%. The “% Activity inhibition Mean” value [4] was 93.8%, the “% Activity inhibition Run 1” value [4] was 92.5% and the “% Activity inhibition Run 2” value [4] was 95.1%. The “% Activity remaining Run 1” value [4] was 7.50%, the “% Activity remaining Run 2” value [4] was 4.90% and the “% Inhibition Run 1” value ([5]; BRSK2) was 77.8%. The “% Inhibition Run 2” value ([5]; BRSK2) was 75.3%, the “% Inhibition, Mean” value ([5]; BRSK2) was 77% and the mean % activity ([5]; BRSK2) was 23%. The “% activity” value ([5]; BRSK2, Run 1) was 22.2%, the “% activity” value ([5]; BRSK2, Run 2) was 24.7% and the “% Inhibition Run 1” value ([6]; NEK6) was 34.4%. For the same compound, the “% Inhibition Run 2” value ([6]; NEK6) was 27.1%, the “% Inhibition, Mean” value ([6]; NEK6) was 31% and the mean % activity ([6]; NEK6) was 69%. The “% activity” value ([6]; NEK6, Run 1) was 65.6% and the “% activity” value ([6]; NEK6, Run 2) was 72.9%.

`CC(=O)[O-].CC(=O)[O-].CC(=O)[O-].CC(=O)[O-].CC(=O)[O-].CC(=O)[O-].[Zn+2].[Zn+2].[Zn+2].c1ccc(-c2csc(NCCN(CCNc3nc(-c4ccccn4)cs3)CCNc3nc(-c4ccccn4)cs3)n2)nc1.c1ccc(-c2csc(NCCN(CCNc3nc(-c4ccccn4)cs3)CCNc3nc(-c4ccccn4)cs3)n2)nc1` [[L2Zn3]6+] was tested, and the “% Inhibition, Mean” value ([1]; TAK1) was 35%, the “% Inhibition, Run 1 / Run 2” value ([1]; TAK1) was 34% and 36% and the mean % activity ([1]; TAK1) was 65%. The “% activity” value ([1]; TAK1, duplicate runs) was 66% and 64%, the “% Inhibition, Mean” value [2] was 32% and the “% Inhibition, Run 1 / Run 2” value [2] was 36% and 27%. The mean % activity [2] was 68%, the “% activity” value ([2]; duplicate runs) was 64% and 73% and the “% Inhibition, Mean” value [3] was 8%. The mean % activity [3] was 92%, the “% activity” value ([3]; duplicate runs) was 82% and 102% and the “% Inhibition, Mean” value [4] was 88%. The “% Inhibition, Run 1 / Run 2” value [4] was 89% and 87%, the mean % activity [4] was 12% and the “% Activity inhibition Mean” value [4] was 88.0%. The “% Activity inhibition Run 1” value [4] was 89%, the “% Activity inhibition Run 2” value [4] was 87% and the “% Activity remaining Run 1” value [4] was 11%. For the same compound, the “% Activity remaining Run 2” value [4] was 13%, the “% activity” value ([4]; duplicate runs) was 11% and 13% and the “% Inhibition, Mean” value ([5]; BRSK2) was 37%. For the same compound, the “% Inhibition, Run 1 / Run 2” value ([5]; BRSK2) was 44% and 30%, the mean % activity ([5]; BRSK2) was 63% and the “% activity” value ([5]; BRSK2, duplicate runs) was 56% and 70%. For the same compound, the “% Inhibition, Mean” value ([6]; NEK6) was 22%, the “% Inhibition, Run 1 / Run 2” value ([6]; NEK6) was 25% and 20% and the mean % activity ([6]; NEK6) was 78%. The “% activity” value ([6]; NEK6, duplicate runs) was 75% and 81%.
